Reference: ChEMBL document CHEMBL1201862, “PubChem BioAssay data set” (2004)
Activity calls are given as the source filed them.

Key:
[1] = target: DNA dC->dU-editing enzyme APOBEC-3G (Homo sapiens, UniProt Q9HC16); assay: Dose Response confirmation of small molecule APOBEC3G DNA Deaminase Inhibitors via a fluorescence-based single-stranded DNA deaminase assay. [Related pubchem assays (depositor defined):AID493012, AID493028]; format: functional
[2] = target: DNA dC->dU-editing enzyme APOBEC-3A (Homo sapiens, UniProt P31941); assay: APOBEC3A DNA deaminase inhibitors, dose response, biochemical (AID 504722); format: functional
[3] = Luminescence Cell-Based Dose Retest to Confirm Inhibitors of Cancer Stem Cells. [Related pubchem assays (depositor defined):AID2717, AID2721]; format: functional; conditions: Homo sapiens
[4] = tested on: Streptococcus sp. 'group A'; assay: growth inhibition of control SK(-) GAS strain, dose response, counter-screen for streptokinase expression inhibitor project, luminescence, kanamycin, BacTiterGlo, confirmation (AID 1900); format: functional, organism-based
[5] = tested on: Streptococcus; assay: Group A Streptococcus viability loss, dose response, counter-screen for streptokinase expression inhibitor project, luminescence, BacTiterGlo (AID 1915); format: functional, organism-based;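 further: potency for reduction of bacterial viability or growth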
[6] = Counterscreen for inhibitors of Trypanosoma brucei methionyl tRNA synthetase (MetRS): Luminescence-based cell-based high throughput dose response assay to identify compounds that are cytotoxic to Jurkat human T lymphocyte cells.; format: functional
[7] = target: T1, DNA repair protein RAD52 homolog (Homo sapiens, UniProt P43351); format: functional, biochemical
T1 sequence (P43351 whole entry): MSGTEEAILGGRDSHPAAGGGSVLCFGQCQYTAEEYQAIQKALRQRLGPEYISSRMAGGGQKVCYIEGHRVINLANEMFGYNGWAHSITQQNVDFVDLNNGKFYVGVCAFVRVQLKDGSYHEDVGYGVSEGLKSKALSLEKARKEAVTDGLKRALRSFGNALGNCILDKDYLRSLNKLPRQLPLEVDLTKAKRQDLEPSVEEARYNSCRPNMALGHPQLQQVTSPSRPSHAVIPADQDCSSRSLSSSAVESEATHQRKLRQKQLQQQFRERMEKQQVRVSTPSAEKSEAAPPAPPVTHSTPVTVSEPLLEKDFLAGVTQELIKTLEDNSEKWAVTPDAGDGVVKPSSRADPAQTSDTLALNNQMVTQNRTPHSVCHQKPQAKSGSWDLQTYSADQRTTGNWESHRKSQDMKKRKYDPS

[8] = target: T2, DNA repair and recombination protein RAD54-like (Homo sapiens, UniProt Q92698); assay: inhibitors of human RAD54 branch migration, confirmation, biochemical, fluorescence, cherry-picked samples, dose series (AID 651657); format: functional
T2 sequence (Q92698 whole entry): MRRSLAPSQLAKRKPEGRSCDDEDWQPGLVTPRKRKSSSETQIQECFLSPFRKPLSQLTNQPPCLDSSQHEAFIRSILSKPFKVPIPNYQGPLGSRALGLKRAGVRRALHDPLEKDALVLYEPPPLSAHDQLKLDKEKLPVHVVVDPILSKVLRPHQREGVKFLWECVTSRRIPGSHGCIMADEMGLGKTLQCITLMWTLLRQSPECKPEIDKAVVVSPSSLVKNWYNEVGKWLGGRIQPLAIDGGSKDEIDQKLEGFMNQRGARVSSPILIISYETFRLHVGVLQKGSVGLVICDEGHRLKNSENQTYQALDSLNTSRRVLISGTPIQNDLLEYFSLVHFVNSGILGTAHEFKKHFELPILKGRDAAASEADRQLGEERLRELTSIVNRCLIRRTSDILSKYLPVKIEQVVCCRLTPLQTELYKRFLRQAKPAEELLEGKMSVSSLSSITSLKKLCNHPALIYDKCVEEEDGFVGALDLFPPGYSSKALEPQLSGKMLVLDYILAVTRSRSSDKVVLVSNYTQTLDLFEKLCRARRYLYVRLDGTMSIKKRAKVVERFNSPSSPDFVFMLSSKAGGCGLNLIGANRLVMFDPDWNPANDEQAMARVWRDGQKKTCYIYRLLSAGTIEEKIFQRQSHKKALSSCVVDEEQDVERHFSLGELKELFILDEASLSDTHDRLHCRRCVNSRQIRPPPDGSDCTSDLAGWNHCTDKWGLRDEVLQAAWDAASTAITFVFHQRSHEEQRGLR

[9] = target: Glucose-6-phosphate 1-dehydrogenase (Homo sapiens, UniProt P11413); assay: human G6PD enzyme inhibitors, dose response, selectivity assay for P. falciparum G6PD inhibitor project, biochemical, fluorescence (AID 504792); format: functional
[10] = target: Large T antigen (Simian virus 40, UniProt P03070); format: functional, Betapolyomavirus macacae;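 further: Confirmatory-stage PubChem screen for compounds that inhibit SV40 T antigen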
[11] = target: T3, Sentrin-specific protease 8 (Homo sapiens, UniProt Q96LD8); format: functional
T3 sequence (Q96LD8 whole entry): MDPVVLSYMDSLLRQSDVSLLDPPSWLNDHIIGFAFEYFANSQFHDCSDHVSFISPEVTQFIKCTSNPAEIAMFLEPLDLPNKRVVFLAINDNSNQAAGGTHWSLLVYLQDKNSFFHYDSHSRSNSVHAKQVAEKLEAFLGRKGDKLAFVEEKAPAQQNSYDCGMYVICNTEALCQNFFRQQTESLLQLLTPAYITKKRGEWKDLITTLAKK

[12] = target: T3, Sentrin-specific protease 8; format: functional; remark: listed apart in the source
[13] = target: Glyceraldehyde-3-phosphate dehydrogenase (Homo sapiens, UniProt P04406)
[14] = target: T4, Short transient receptor potential channel 4 (Mus musculus, UniProt Q9QUQ5); assay: mouse TRPC4 channel inhibitors, dose response, cell-based, HEK293 TRPC4/mu-opioid, Fluo-4 calcium (AID 434942); format: functional;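 further: potency of inhibitors blocking the TRPC4 calcium response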
T4 sequence (Q9QUQ5 whole entry): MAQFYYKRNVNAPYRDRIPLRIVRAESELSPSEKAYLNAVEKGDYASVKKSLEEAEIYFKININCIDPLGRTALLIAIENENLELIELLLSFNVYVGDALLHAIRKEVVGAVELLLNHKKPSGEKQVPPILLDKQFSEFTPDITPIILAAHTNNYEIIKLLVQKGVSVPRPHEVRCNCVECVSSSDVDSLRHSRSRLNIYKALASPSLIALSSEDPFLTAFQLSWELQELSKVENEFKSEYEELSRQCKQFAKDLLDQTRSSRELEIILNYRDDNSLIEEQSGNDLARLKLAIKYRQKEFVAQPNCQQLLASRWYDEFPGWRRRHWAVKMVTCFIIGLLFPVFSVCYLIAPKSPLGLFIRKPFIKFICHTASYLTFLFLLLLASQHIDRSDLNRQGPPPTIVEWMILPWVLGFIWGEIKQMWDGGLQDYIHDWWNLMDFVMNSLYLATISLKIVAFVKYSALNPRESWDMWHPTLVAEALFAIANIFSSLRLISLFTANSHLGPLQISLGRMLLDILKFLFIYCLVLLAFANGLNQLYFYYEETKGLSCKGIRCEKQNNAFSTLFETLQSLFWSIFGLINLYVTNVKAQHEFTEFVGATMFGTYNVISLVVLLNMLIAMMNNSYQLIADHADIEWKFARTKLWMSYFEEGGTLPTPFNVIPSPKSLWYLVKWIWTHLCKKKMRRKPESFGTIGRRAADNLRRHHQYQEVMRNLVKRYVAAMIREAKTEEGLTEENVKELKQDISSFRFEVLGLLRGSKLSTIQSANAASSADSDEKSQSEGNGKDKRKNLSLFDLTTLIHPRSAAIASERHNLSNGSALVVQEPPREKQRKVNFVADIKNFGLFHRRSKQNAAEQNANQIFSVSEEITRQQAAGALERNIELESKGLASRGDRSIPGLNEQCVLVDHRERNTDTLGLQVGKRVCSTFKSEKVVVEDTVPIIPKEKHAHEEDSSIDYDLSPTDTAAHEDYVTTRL

[15] = tested on: INS1; assay: beta cell apoptosis inhibitors, cytokine rescue, dose response, luminescence, retest (AID 449756); format: functional, cell-based; conditions: Rattus norvegicus;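 further: cell death triggered by IL-1 beta plus TNF-alpha plus IFN-gamma mixture; protective hits raise ATP signal compared with cytokine alone wells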
[16] = A cytotoxicity screen of small molecule inhibitors of the PhoP region in Salmonella typhi identified in the primary screen. [Related pubchem assays: 1850, 1864, 1985 ]; format: functional

Chain of DNA dC->dU-editing enzyme APOBEC-3A (P31941 whole entry): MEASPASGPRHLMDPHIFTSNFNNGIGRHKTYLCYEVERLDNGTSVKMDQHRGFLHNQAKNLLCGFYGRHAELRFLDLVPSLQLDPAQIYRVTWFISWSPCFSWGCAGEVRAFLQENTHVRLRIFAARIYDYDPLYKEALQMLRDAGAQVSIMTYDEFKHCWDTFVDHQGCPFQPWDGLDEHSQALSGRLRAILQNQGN
Chain of DNA dC->dU-editing enzyme APOBEC-3G (Q9HC16 whole entry): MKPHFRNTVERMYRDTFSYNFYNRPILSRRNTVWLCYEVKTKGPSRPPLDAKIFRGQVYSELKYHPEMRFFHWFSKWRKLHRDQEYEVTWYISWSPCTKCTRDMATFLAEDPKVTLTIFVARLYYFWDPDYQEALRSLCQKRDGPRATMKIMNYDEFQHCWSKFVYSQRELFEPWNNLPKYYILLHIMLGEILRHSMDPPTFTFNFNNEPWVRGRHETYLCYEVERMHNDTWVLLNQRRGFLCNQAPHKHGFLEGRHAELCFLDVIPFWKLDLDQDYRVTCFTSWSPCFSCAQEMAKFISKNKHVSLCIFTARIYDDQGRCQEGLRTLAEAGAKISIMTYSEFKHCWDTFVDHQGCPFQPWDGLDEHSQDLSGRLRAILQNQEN
Chain of Large T antigen (P03070 whole entry): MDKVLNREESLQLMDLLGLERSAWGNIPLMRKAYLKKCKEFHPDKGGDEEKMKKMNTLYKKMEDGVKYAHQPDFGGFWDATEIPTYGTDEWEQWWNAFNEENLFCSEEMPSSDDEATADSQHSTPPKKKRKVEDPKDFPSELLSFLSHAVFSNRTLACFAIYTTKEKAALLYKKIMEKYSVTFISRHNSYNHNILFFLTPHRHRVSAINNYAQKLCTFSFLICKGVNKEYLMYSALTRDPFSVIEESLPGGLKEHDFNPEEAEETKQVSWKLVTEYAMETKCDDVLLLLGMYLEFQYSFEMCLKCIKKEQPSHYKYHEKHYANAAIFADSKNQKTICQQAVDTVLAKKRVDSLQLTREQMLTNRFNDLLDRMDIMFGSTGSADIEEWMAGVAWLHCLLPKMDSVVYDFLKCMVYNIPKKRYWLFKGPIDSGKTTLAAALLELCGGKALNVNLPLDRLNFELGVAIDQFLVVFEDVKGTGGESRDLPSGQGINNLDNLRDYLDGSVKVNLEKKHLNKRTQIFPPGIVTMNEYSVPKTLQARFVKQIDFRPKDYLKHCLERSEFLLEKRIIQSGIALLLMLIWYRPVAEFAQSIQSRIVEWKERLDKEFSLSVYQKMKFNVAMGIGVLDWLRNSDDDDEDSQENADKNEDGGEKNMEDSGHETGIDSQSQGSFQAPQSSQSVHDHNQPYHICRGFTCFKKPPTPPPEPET
Chain of Glucose-6-phosphate 1-dehydrogenase (P11413 whole entry): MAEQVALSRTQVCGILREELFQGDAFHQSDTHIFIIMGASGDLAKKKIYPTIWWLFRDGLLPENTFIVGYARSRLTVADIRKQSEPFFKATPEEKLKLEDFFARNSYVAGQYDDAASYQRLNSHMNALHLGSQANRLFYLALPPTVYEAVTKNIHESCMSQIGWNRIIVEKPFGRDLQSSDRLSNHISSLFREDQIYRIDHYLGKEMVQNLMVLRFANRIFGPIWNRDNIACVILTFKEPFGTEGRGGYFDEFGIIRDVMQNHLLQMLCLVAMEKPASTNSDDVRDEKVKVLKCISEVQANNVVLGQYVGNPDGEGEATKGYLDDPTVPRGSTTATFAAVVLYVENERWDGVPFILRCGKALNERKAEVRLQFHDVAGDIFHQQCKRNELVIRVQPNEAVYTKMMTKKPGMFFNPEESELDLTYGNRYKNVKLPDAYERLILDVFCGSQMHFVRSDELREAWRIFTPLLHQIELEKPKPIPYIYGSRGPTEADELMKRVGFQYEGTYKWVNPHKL
Chain of Glyceraldehyde-3-phosphate dehydrogenase (P04406 whole entry): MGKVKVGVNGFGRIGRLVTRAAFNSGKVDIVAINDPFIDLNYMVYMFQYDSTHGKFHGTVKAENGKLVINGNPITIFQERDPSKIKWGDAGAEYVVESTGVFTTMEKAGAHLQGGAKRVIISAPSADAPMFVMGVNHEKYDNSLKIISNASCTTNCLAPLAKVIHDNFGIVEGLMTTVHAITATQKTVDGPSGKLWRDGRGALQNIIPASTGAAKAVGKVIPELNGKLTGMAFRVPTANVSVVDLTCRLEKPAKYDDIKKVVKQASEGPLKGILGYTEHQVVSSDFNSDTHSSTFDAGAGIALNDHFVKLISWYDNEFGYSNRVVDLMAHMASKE

With Cc1ccc(-c2n[nH]c(=S)n2C)cc1Cl the IC50 [1] was 4.34 µM (active) and the IC50 [2] was > 100 µM (inactive).
For CC(CNC(S)=Nc1cc(F)cc(F)c1)CSc1ccc(Cl)cc1 (configuration not stated), the AC50 [3] was 6.24 µM (active), the EC50 [4] was 8.3 µM (active) and the EC50 [5] was 36 µM (active). For the same compound, the IC50 [6] was 27.8 µM (inactive).
For COc1ccc(OC)c(Nc2nc(NCCCN(C)C)nc(N)c2[N+](=O)[O-])c1, the AC50 [7] was 7.02 µM (active) and the AC50 [8] was 20.2 µM (active).
In the case of COc1ccc(N2CSC3=C(C#N)C(c4ccc(OC)c(OC)c4)CC(=O)N3C2)c(OC)c1 (configuration not stated), the IC50 [9] is reported as > 80 µM (inactive) and the IC50 [10] is reported as 52.7 µM (active).
For O=C(CN1C(=O)CSC1=O)N1CCc2ccccc2C1, the IC50 [11] was 10.6 µM (active) and the IC50 [12] was 80.8 µM (inactive).
With O=C(O)c1cc(N2C(=O)C3C4c5ccccc5C(c5ccccc54)C3C2=O)ccc1O (configuration not stated) the IC50 [13] was > 100 µM (not active).
In the case of N#CC1=C2SCN(c3ccccc3)CN2C(=O)CC1c1cccs1 (configuration not stated), the IC50 [1] is reported as 7.25 µM (active) and the IC50 [2] is reported as > 100 µM (inactive).
For CCS(=O)(=O)N1CCC(C(=O)N2CCc3ccccc3C2)CC1, the IC50 [11] was 8.89 µM (active) and the IC50 [12] was > 100 µM (inactive).
With Brc1ccccc1CN1CCN(Cc2c[nH]c3ccccc23)CC1 the EC50 [14] was 0.0747 µM (active) and the AC50 [15] was 2.16 µM (active).
In the case of COc1ccc(N(CC(=O)N2c3ccccc3CC2C)S(=O)(=O)c2c(C)noc2C)cc1 (configuration not stated), the EC50 [16] is reported as > 50 µM (active).
With Sc1nnc(-c2cccnc2)n1/N=C/c1ccccc1 the IC50 [1] was 2.02 µM (active) and the IC50 [2] was > 100 µM (inactive).
